The test system of the assay is CHOP reporter cell assay, percent of control. Put plainly: CHOP reporter inhibitor potency, dose response, cell-based (AID 504322).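 Further: CHO cells carrying a CHOP reporter stimulated with tunicamycin to induce ER stress; potency is for inhibition of the stress-induced reporter signal.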

pIC50: −log10 of the molar value. Active and inactive are the calls of the source. How the calls were made is not given here.

Turning to `CC(C)(C)OC(=O)N[C@@H](Cc1ccccc1)c1nnc(S(=O)(=O)Cc2ccccc2)o1`, the IC50 is 5.59 µM (inactive).

Regarding `COc1cc(/C=C/C(=O)OC2CC3CCC2(C)C3(C)C)ccc1O` (stereo unspecified), the IC50 is 9.52 µM (inactive).

Turning to `CCCc1cc(C(=O)Cc2ccc(F)cc2)c(O)cc1O`, the IC50 was 5.98 µM (inactive).

On to `C=CCOC(=O)C1=C(C)NC(C)=C(C(=O)OCC=C)C1/C=C/c1ccccc1`, for which the IC50 was 5.02 µM (inactive).

In the case of `O=C1C(Nc2ccccc2)=C/C(=N/S(=O)(=O)c2cccs2)c2ccccc21`, the pIC50 is 5.59.

As to `CCc1c(C)sc(NC(=O)CSc2nc3c(c(C(F)(F)F)n2)CCc2ccccc2-3)c1C#N`, the IC50 was 9.75 µM (inactive).

With `O=C(c1ccc2c3c(cccc13)C(=O)N(O)C2=O)N1CCCCC1`, the pIC50 was 5.72.

Take `O=S(=O)(Nc1cccc2c1CCCC2)c1cccc(C(F)(F)F)c1`: the IC50 is 9.51 µM (inactive).

For the compound `CCOc1cc(C(=O)CSc2nnc(CNc3ccc(Cl)cc3)o2)ccc1NC(=O)CC`, the IC50 was 9.47 µM (inactive).

Take `Cc1cc(/C=N/Nc2nc(N)ncc2[N+](=O)[O-])c(C)n1-c1cccc(C(F)(F)F)c1`: the IC50 is 9.14 µM (inactive).

Consider `C(=N\Nc1ncnc2sc3c(c12)CCC3)/c1cccs1`, for which the IC50 was 8.89 µM (inactive).

In the case of `Cc1csc(NC(=O)CSc2nnc3c4ccccc4nc(C(C)(C)C)n23)n1`, the IC50 is 9.55 µM (inactive).

For the compound `O=C(Nc1ccccc1C(F)(F)F)c1cc(-c2ccc(O)cc2)on1`, the IC50 was 9.47 µM (inactive).

`O=C(OCn1ncc(Cl)c(Cl)c1=O)c1cccc(C(F)(F)F)c1`: the pIC50 is 5.35.

With `COc1ccc(CCN2C(=O)c3[nH]nc(-c4ccccc4O)c3C2c2cccc(Cl)c2)cc1` (stereo unspecified), the IC50 was > 10 µM (inactive).

Take `O=C1NCN(c2ccccc2)C12CCN(CCCC(c1ccc(F)cc1)c1ccc(F)cc1)CC2`: the IC50 was 7.76 µM (inactive).

For `O=C(NCc1ccccc1)c1cc(-c2ccncc2)nc2ccc(S(=O)(=O)N3CCOCC3)cc12`, the IC50 is 9.8 µM (inactive).

As for `CCOc1cccc(CNc2ccc(O)cc2)c1OCc1ccc(Cl)cc1Cl`, the pIC50 is 5.34.

As to `CCOc1ccc(C2=C/C(=C/c3cccnc3)C(=O)O2)cc1`, the IC50 is 9.39 µM (inactive).

Take `O=C(CNC1CCCCCC1)Nc1ccccc1N1CCCCC1`: the IC50 was 7.73 µM (inactive).

For `Cc1ccc(S(=O)(=O)Nc2ccc(NC(=O)Nc3cccc(C(F)(F)F)c3)cc2)cc1`, the IC50 was 9.48 µM (inactive).

In the case of `FC(F)(F)c1cccc(NC(=S)NC(c2ccccc2)c2ccccc2)c1`, the IC50 was 9.54 µM (inactive).

As for `O=C1C=CC(=O)N1CCCCCCN1C(=O)C=CC1=O`, the pIC50 was 5.31.

Turning to `CC(C)Cn1c(N)c(C(=O)COC(=O)C2CCCCC2)c(=O)n(C)c1=O`, the IC50 was > 10 µM (inactive).

Consider `O=C(CNc1cccc(C(F)(F)F)c1)N/N=C/c1cccc(Br)c1`, for which the IC50 was > 10 µM (inactive).

Regarding `Cc1ccc2nc(-c3cc(-c4ccccc4)no3)cn2c1`, the IC50 was 9.74 µM (inactive).

Take `OC(c1cccc(OCc2ccccc2)c1)c1nnc(-c2ccccc2)o1` (stereo unspecified): the IC50 was > 10 µM (inactive).

Regarding `CCCCCCCCCCCCCCCC[n+]1cccc(C(=O)N(CC)CC)c1`, the IC50 is 5.06 µM (inactive).

Consider `CNC(=O)NC(=O)C(C)OC(=O)c1oc2ccccc2c1CSc1ccc(Cl)cc1` (stereo unspecified), for which the IC50 is > 10 µM (inactive).

Consider `COc1cc(OC)cc(-c2nc3ccccc3c(=O)n2OC(=O)c2ccc(Br)cc2)c1`, for which the IC50 is > 10 µM (inactive).

On to `CCOc1cc(/C=N/NC(=O)Cc2ccc(C(F)(F)F)cc2[N+](=O)[O-])c(Br)cc1OC`, for which the negative logarithm of the IC50 (pIC50) is 5.34.

Take `C=CCN1C(=O)/C(=C/c2ccc(OC(C)=O)c(OCC)c2[N+](=O)[O-])SC1=S`: the IC50 was 5.3 µM (inactive).

As to `CCOC(=O)C1=C(O)/C(=C/c2ccc(CNC(=O)C(=O)Nc3ccc(C)cc3)o2)N=C1C`, the IC50 is > 10 µM (inactive).

`O=C(Nc1ccc(-c2nc3ccccc3o2)cc1)c1ccc(N2CCOCC2)c([N+](=O)[O-])c1`: the pIC50 was 5.45.

On to `COc1cc(CNCc2ccccn2)ccc1OCc1ccc(Cl)cc1Cl`, for which the IC50 is 6.74 µM (inactive).

Consider `O=C(NCc1nc(-c2ccc(C(F)(F)F)cc2)no1)Nc1cc(Cl)cc(Cl)c1`, for which the pIC50 is 5.32.

On to `CCOc1ccc(-n2c(SCC(=O)Nc3ccc(Br)cc3)nc3n[nH]c(C)c3c2=N)cc1`, for which the IC50 was 8.02 µM (inactive).

For `Cc1ccc(-c2cc3c(nn2)-c2ccccc2C3=O)cc1`, the IC50 is 6.03 µM (inactive).

`O=C(Nc1ccc(F)cc1)Nc1ccc(N2CCCC2)c(S(=O)(=O)Nc2ccccc2Cl)c1`: the IC50 was 8.31 µM (inactive).

Regarding `CCC(NC(=O)Nc1nnc(C(F)(F)F)s1)(C(F)(F)F)C(F)(F)F`, the IC50 is 2.56 µM (inactive).

On to `COc1ccc(-c2cnc(OC(C)(C)C)nc2OC(C)(C)C)cc1OC`, for which the IC50 is 4.6 µM (inactive).

Take `O=C(NC1CCCCC1)C(c1ccc(F)cc1)N(Cc1ccccc1)C(=O)CN1C(=O)c2ccccc2S1(=O)=O` (stereo unspecified): the negative-log IC50 (pIC50) was 5.31.

Take `CCN1C=CC(=C2C(=O)c3ccccc3C2=O)C=C1`: the IC50 is 1.11 µM (inactive).

As for `COc1ccc(-c2cc(C3CCN(Cc4cccc(C(F)(F)F)c4)CC3)[nH]n2)cc1`, the IC50 is 4.11 µM (inactive).

Regarding `CCOC(=O)COc1ccccc1/C=C\[N+](=O)[O-]`, the IC50 was 9.51 µM (inactive).

Take `CC(=O)C(C(C)=O)c1c(Cl)c(O)c(O)c2c(C(=O)c3ccccc3)coc12`: the IC50 is 5.67 µM (inactive).

Regarding `COc1cc(/C=C2\CC/C(=C\c3cc(OC)c(O)c(OC)c3)C2=O)cc(OC)c1O`, the IC50 was 1.84 µM (inactive).

For `C=CCSc1nc2ccccc2n1C(=O)/C=C/c1cc(OC)c(OC)c(OC)c1`, the negative-log IC50 (pIC50) was 5.38.

Turning to `Cc1cccc(Nc2nc(N)c([N+](=O)[O-])c(N3CC(C)CC(C)C3)n2)c1` (stereo unspecified), the IC50 is > 10 µM (inactive).

Consider `O=[N+]([O-])c1ccc(/C=N/N=C/c2ccc([N+](=O)[O-])o2)o1`, for which the pIC50 was 5.75.

Consider `CC(C)=NOc1cc(NC(=O)CCl)cc([N+](=O)[O-])c1`, for which the IC50 was 9.61 µM (inactive).

With `CC(=O)N(C1=C(Cl)C(=O)c2ccccc2C1=O)C1CCCCC1`, the IC50 was 8.08 µM (inactive).

`Cc1ccc(OCC(=O)N2CCN(c3nnc(-c4ccc(C)cc4)c4ccccc34)CC2)cc1`: the IC50 was 8.38 µM (inactive).

On to `C=CCn1c(CCc2cc(C(C)(C)C)c(O)c(C(C)(C)C)c2)n[nH]c1=S`, for which the IC50 was 7 µM (inactive).

With `COC(=O)/C(=C1/Oc2cc(C)oc(=O)c2S1)C(F)(F)F`, the negative logarithm of the IC50 (pIC50) is 5.31.

Take `O=S1(=O)C=C(Sc2nc3cc(Cl)ccc3o2)c2ccccc21`: the pIC50 was 5.54.

As for `CC(C)=C1C2CCC1C(C(=O)Nc1sc(C)c(-c3ccc(C(C)C)cc3)c1C(N)=O)C2C(=O)O` (stereo unspecified), the negative-log IC50 (pIC50) was 5.32.

Turning to `COc1ccc(/C=C2\SC(=S)N(CCCC(=O)Nc3ccc(O)cc3)C2=O)cc1`, the negative logarithm of the IC50 (pIC50) was above 6.80.

Take `Cc1cc(/C=N/n2cnnc2)c(C)n1-c1ccc(OCc2ccccc2F)cc1`: the pIC50 is 5.31.

For the compound `O=C(c1ccc(COc2ccc(Cl)cc2)o1)N1N=C(C(F)F)CC1(O)C(F)F` (stereo unspecified), the IC50 is 9.64 µM (inactive).

Take `CCOC(=O)c1c(-n2c(C)cc(C=C3C(=O)NC(=S)NC3=O)c2C)sc2c1CCCC2`: the IC50 was 5.85 µM (inactive).

By IC50 is commonly meant the midpoint of a concentration-inhibition curve. For orientation: pIC50 means the IC50 on a negative log10 scale, so that one unit is a factor of ten.

The record behind these values is PubChem BioAssay AID504322 (Emory University Molecular Libraries Screening Center, 2011).
